Earlier results as cited in patent EP3072529B1, “COMPOSITION COMPRISING VEMURAFENIB AND HPMC-AS” (ratiopharm GmbH, priority 2015, dated 2016).

Conditions: reported

solubility in aqueous and physiological solvents: practically insoluble
SMILES: CCCS(=O)(=O)Nc1ccc(F)c(C(=O)c2c[nH]c3ncc(-c4ccc(Cl)cc4)cc23)c1F [Vemurafenib base, propane-1-sulfonic acid {3-[5-(4-chlorophenyl)-1H-pyrrolo[2,3-b]pyridine-3-carbonyl]-2,4-difluorophenyl}-amide]
